Experimental data from US20240067645A1, “HETEROCYCLIC COMPOUND AS DIACYLGLYCEROL KINASE INHIBITOR AND USE THEREOF” (LG CHEM, LTD., priority 2020, published 2024).

The compounds below were run against DGKα (Homo sapiens (Human), UniProt P23743) (assay: Measurement of inhibitory effect against DGKα enzyme (ADP-Glo)). Settings: DGKα enzyme, ADP-Glo luminescence, OAG/ATP substrate, 20 min room temperature; read-out: IC50.
DGKα, sequence (P23743 whole entry, species assumed): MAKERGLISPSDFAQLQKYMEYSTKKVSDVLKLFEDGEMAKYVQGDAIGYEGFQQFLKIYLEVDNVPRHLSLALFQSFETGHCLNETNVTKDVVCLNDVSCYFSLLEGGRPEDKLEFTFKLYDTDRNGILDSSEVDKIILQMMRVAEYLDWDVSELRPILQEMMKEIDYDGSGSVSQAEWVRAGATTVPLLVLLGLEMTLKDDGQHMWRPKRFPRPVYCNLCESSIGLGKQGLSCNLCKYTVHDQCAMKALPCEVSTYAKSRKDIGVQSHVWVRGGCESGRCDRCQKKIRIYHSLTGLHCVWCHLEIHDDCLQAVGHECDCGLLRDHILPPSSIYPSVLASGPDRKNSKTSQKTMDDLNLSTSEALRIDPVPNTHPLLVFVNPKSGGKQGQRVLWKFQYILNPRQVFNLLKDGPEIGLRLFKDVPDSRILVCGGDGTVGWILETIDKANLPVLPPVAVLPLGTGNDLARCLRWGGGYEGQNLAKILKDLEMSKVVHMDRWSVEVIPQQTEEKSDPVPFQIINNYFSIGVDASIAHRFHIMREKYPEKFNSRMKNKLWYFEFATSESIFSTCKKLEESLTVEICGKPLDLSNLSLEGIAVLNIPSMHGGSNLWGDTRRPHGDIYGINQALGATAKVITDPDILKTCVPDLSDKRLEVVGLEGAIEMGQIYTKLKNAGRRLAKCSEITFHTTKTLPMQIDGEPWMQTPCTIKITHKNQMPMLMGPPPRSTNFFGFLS
Assay type: biochemical
Experimental: Experimental Example: Measurement of Inhibitory Effect Against DGKα Enzyme
First, 3×OAG (3 mM)/ATP (0.45 mM) substrate solution was prepared from 1× substrate assay buffer (40 mM MOPS (pH 7.2), 20 mM MgCl2, 1 mM DTT, 0.4 mM CaCl2), 3 mM sodium deoxycholate, 100 mM NaCl, 0.1 mg/mL BSA, 0.12% NP-40), and vortexed thoroughly for 3 minutes to induce detergent-lipid micelle formation. Then, 3×DGKα (7.5 nM) enzyme solution was prepared from 2× enzyme assay buffer (80 mM MOPS (pH 7.2), 2 mM DTT, 200 mM NaCl, 0.2 mg/mL BSA) and vortexed for a short time.
After preparing the above two solutions, a half-area opaque 96-well assay plate was prepared, and 10 μL of 3× diluted compound solution (30 μM to 0 μM) was transferred to each well. Next, 10 μL of 3×DGK enzyme solution was transferred to the same plate, mixed by pipetting, and then 10 μL of 3×OAG/ATP substrate solution was added to the assay plate and mixed well. The plate was incubated at room temperature for 20 minutes for the enzyme reaction. Next, 15 μL of ADP-Glo reagent was added to each well and mixed by pipetting, followed by incubating the plate at room temperature for 40 minutes to deplete the remaining ATPs. After this step, 30 μL of kinase detection reagent was added and mixed, and the plate was incubated at room temperature for an additional 20 minutes and luminescence was measured by Envision to calculate the IC50 value of each compound.
The measurement results are represented in Table 1 (+: IC50>5 μM, ++: 5 μM>IC50>300 nM, +++: IC50<300 nM).
In the case of `CNC(=O)c1cnc2c(c1)n(C)c(=O)c(=O)n2C1CCN(Cc2ccc(OC(F)(F)F)cc2)CC1` [Example 65, N,1-dimethyl-2,3-dioxo-4-(1-(4-(trifluoromethoxy)benzyl)piperidin-4-yl)-1,2,3,4-tetrahydropyrido[2,3-b]pyrazine-7-carboxamide], the IC50 is reported as 300 to 5000 nM. For `Cn1c(=O)c(=O)n(C2CCN(Cc3ccc(OC(F)(F)F)cc3)CC2)c2ncc(C(N)=O)cc21` [Example 66, 1-methyl-2,3-dioxo-4-(1-(4-(trifluoromethoxy)benzyl)piperidin-4-yl)-1,2,3,4-tetrahydropyrido[2,3-b]pyrazine-7-carboxamide], the IC50 was under 300 nM. `Cc1cnc2c(c1)n(C)c(=O)c(=O)n2C1CCN(Cc2cccc(Cl)c2)CC1` [Example 67, 4-(1-(3-chlorobenzyl)piperidin-4-yl)-1,7-dimethyl-1,4-dihydropyrido[2,3-b]pyrazine-2,3-dione] showed an IC50 of under 300 nM.
